This is an account of results in patent publication EP4427750A1, “TREATMENT OF LUNG ADENOCARCINOMA” (priority 2023, dated 2024).

Where two headings read alike, the source gives them in different places.

The test system of assay [1] is A549 cell line. Description: cells. The settings on record: Homo sapiens. The format is cell-based. The method, then: A549 cells were obtained from ATCC and cultured with culture medium (D0819 DMEM 10% FBS 1% penicillin/streptomycin) at 37°C. Cell viability was measured using an MTT assay. MTT ((3-[4,5-dimethylthiazol-2-yl]-2,5-diphenyltetrazolium bromide) (1x), at 5 mg/ml) was added for 1 hour and formazan was dissolved with DMSO (dimethyl sulfoxide). Optical density at a wavelength of 570 nm was measured using a microplate reader (Hidex plate reader) to quantify the relative number of living cells. To determine treatment concentrations, cells were treated with serially diluted drugs until a concentration that reduced cell viability by around 50%. […] Cells were treated with the drugs at their designated concentrations for two days.

Assay [2] deals with TTK. Briefly: Western blot of TTK protein expression in A549 cells after drug treatment. The format is cell-based. As to conditions: A549, 10µM. The method, then:
PVDF membranes were blocked for 30 minutes with 5% skim milk and TBST (Tris Buffered Saline with 0.2% Tween 20) and then treated overnight on a shaker plate at 4°C with 0.5% skim milk with TBST and MCM6 (Abcam Cat# ab201683) and TTK (Abcam Cat# ab187520) primary antibodies diluted 1:20000 and for 30 minutes with TUBA1A (Abeam Cat# ab7291, RRID:AB_2241126) primary antibodies diluted 1:20000. The solution was then replaced with a new solution of 0.5% skim milk with TBST and anti-rabbit (Abeam Cat# ab6721, RRID:AB_955447) or anti-mouse (Abeam Cat# ab6789, RRID:AB_955439) secondary antibodies diluted 1:20000 for 30 minutes.

Assay [3] relates to A549 cell line. Description: LDH cytotoxicity assay. Format: cell-based. Here is the method: 30 minutes after LDH (Abcam Cat# ab65393) administration, optical density at a wavelength of 450 nm was measured using a microplate reader (Hidex plate reader) to quantify the relative LDH activity which was released into the media via the drug's cytotoxic effect.
Assay [4] relates to MCM6. Briefly: Western blot of MCM6 protein expression in A549 cells after drug treatment.
[5] abbreviates: A549, 48 h, read-out: cell viability.
Where [6] appears, read: A549, dose dependent MTT assay, read-out: concentration which could reduce the cell viability by 50%.

The term viability denotes a per cent measure of how many cells are alive, often set against a control. For the molecule `OCCCNc1cc(-c2ccnc(Nc3cccc(Cl)c3)n2)ccn1` [CGP-60474], the viability at 10 µM in assay [1] (setting [5]) was 29.1%. Moreover, the IC50 in assay [1] (setting [6]) worked out at 10 µM. Also, the “effect on TTK protein level” value in assay [2] was “showed an inhibitory effect on TTK”. In addition, the necrotic cell death result in assay [3] (A549, 10µM, lysis positive control 100%, untreated 0%) was “did not induce necrotic cell death”. For the same molecule, the “protein level of MCM6” value in assay [4] (A549, 10µM) was “significantly reduced”.

`O=C1c2c(O)ccc(O)c2C(=O)c2c(NCCNCCO)ccc(NCCNCCO)c21` [mitoxantrone]: the viability at 0.1 µM in assay [1] (setting [5]) was 52.2%. The IC50 in assay [1] (setting [6]) worked out at 0.1 µM. In addition, the cytotoxicity at 0.1 µM in assay [3] (Homo sapiens, A549, 48 h, read-out: necrotic cell death) came out at 3.45%. For the same molecule, the “protein level of MCM6” value in assay [4] (A549, 100nM) is “significantly reduced”.

Take `COC[C@H]1OC(=O)c2coc3c2[C@@]1(C)C1=C(C3=O)[C@@H]2CCC(=O)[C@@]2(C)C[C@H]1OC(C)=O` [wortmannin]: in assay [1] (setting [5]), the viability at 10 µM amounted to 62.3%. The IC50 in assay [1] (A549, read-out: concentration which could reduce the cell viability by 50%) stood at 10 µM. Also, the necrotic cell death result in assay [3] was “did not induce necrotic cell death”.
